Common to all, as to type: biochemical
One test concerns the target T1, RET G810R (Homo sapiens, UniProt P07949, G810R).
T1 construct: purchased Proqinase 1724-0000-1
Put plainly: In vitro kinase activity assay (mobility shift assay), RET G810R. Particulars: ATP 201 μM, reaction time 4 h. The method, then:
(§1) The IC50 (half inhibitory concentration) values of the compounds were used as an indicator to evaluate the inhibitory effect of the compound on RET wild-type, RET mutant, TRKa, SRC, BTK and/or mutated BTK kinase.
(§2) Using the method of Mobility shift assay, the compounds were tested for inhibitory activity against the following kinases: RET wild type, RET mutant, TRKa, SRC, BTK and/or mutated BTK. The initial concentration of the test compound was 1000 nM, 3-fold dilution, 10 concentrations, detected in a well for each concentration.
(§3) 20 mM hydroxyethylpiperazineethanesulfonic acid (Hepes) (pH 7.5) buffer, 10 mM MgCl2, 1 mM ethylene glycol bis(aminoethyl ether)tetraacetic acid (EGTA), 0.02% polyoxyethylene lauryl ether (Brij35), 0.02 mg/ml […] (BSA), 0.1 mM Na3VO4, 2 mM dithiothreitol (DTT), 1% DMSO.
(§4) The test compounds were dissolved in 100% dimethyl sulfoxide (DMSO) system, and prepared as 10 mM for use, and stored in a nitrogen cabinet away from light.
(§5) • (1) Preparing 1× kinase reaction buffer. • (2) Preparation of compound concentration gradient: the initial concentration of the compounds was 1000 nM, which was diluted as 100-fold final concentration of solution in 100% dimethyl sulfoxide (DMSO) in a 384-well plate. The compound was accurately 3-fold diluted with the kinase buffer solution, 10 concentrations in total, and the final concentration was 0.0508 nM. The 100-fold final concentration of solution in 100% dimethyl sulfoxide (DMSO) was obtained by dilution in 384 source plate. The liquid separator Echo 550 was used to transfer 250 nl of 100-fold final concentration of compound to the target 384 well plate. 250 nl of DMSO was added to the positive and negative control wells. • (3) 2.5-fold final concentration of kinase solution was prepared by the 1× kinase buffer. • (4) 10 4, of 2.5-fold final concentration of kinase solution was added to the compound well and the positive control well, respectively; 10 4, of 1× kinase buffer was added to the negative control well. • (5) After centrifuging at 1000 rpm for 30 second, the reaction plate was shaken and mixed, followed by incubation at room temperature for 10 min. • (6) a mixed solution of 25/15-fold final concentration of adenosine triphosphate (ATP) and kinase substrate was prepared by 1× kinase buffer. • (7) The mixed solution (15 μL) of 25/15-fold final concentration of adenosine triphosphate (ATP) and substrate was added to initiate the reaction. • (8) 384-well plate was centrifuged at 1000 rpm for 30 second, shaken and mixed well, and then incubated at room temperature for 30-240 min. • (9) After stopping the kinase reaction, the plate was centrifugated at 1000 rpm for 30 second, shaken and mixed well. • (10)The conversion rate was read with Caliper EZ Reader.
(§6) wherein Conversion%_sample is the conversion rate reading of the sample; Conversion%_min: the mean value of negative control wells, representing the conversion rate reading of wells without enzymes; Conversion%_max: the mean value of positive control wells, representing the conversion rate reading of wells without compound inhibition.
(§7) The log value of concentration was taken as the X axis, and the percentage inhibition rate was taken as the Y axis. Graphpad 6.0 analysis software was used to fit the dose-response curve, so as to obtain the IC50 value of each compound on the enzyme activity

The target in a further test is T2, RET wt (Homo sapiens, UniProt P07949).
T2 construct: purchased Carna 08-159
T2 sequence (P07949 29-1114): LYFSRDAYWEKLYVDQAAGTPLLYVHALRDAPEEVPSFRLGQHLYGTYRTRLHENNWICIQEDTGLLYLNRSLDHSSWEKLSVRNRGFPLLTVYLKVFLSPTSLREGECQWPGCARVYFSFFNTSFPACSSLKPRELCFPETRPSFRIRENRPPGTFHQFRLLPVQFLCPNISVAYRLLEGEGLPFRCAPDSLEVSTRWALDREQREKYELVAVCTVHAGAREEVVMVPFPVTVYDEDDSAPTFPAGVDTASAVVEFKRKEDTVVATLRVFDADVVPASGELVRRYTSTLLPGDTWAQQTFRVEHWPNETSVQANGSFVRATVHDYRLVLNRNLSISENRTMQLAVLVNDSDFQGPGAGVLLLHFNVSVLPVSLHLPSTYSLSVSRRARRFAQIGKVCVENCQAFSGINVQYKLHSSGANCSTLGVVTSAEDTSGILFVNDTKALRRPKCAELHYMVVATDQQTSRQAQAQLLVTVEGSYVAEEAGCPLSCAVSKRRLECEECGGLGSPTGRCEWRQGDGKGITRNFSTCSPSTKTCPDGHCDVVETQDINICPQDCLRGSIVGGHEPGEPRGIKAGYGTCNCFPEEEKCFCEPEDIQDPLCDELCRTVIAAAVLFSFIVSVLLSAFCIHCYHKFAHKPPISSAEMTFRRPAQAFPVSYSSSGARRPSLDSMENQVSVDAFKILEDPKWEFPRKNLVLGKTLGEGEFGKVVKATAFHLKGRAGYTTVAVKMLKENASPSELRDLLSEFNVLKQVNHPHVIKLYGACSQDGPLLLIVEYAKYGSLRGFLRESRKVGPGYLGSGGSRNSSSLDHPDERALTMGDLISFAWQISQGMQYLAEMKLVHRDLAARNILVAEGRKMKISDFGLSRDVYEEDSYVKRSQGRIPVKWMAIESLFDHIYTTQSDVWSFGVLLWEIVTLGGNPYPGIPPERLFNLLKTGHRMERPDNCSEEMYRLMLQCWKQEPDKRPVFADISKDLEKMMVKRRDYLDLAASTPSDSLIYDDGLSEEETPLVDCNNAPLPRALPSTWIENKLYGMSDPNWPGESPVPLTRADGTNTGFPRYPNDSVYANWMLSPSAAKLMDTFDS
Kind of test: In vitro kinase activity assay (mobility shift assay), RET wild type. As to conditions: ATP 16 μM, reaction time 60 min. On the procedure:
as §1, §2, §3, §4, §5, §6, §7

The next test concerns the target T3, BTK (Homo sapiens, UniProt Q06187).
T3 construct: purchased Carna 08-180
Put plainly: In vitro kinase activity assay (mobility shift assay), BTK. Particulars: ATP 71 μM, reaction time 30 min. The method, then:
as §1, §2, §3, §4, §5, §6, §7

Another test deals with T4, RET V804M (Homo sapiens, UniProt P07949, V804M).
T4 construct: purchased signalchem R02-12GG
T4 sequence (P07949 29-1114 V804M): as the sequence (P07949 29-1114) above, with V776M counted along it
Put plainly: In vitro kinase activity assay (mobility shift assay), RET V804M. As to conditions: ATP 5.4 μM, reaction time 60 min. The method, then:
as §1, §2, §3, §4, §5, §6, §7

SMILES strings stand for the structures. Where only a bound is given, the exact number is not on record here.

T3 sequence (Q06187 whole entry): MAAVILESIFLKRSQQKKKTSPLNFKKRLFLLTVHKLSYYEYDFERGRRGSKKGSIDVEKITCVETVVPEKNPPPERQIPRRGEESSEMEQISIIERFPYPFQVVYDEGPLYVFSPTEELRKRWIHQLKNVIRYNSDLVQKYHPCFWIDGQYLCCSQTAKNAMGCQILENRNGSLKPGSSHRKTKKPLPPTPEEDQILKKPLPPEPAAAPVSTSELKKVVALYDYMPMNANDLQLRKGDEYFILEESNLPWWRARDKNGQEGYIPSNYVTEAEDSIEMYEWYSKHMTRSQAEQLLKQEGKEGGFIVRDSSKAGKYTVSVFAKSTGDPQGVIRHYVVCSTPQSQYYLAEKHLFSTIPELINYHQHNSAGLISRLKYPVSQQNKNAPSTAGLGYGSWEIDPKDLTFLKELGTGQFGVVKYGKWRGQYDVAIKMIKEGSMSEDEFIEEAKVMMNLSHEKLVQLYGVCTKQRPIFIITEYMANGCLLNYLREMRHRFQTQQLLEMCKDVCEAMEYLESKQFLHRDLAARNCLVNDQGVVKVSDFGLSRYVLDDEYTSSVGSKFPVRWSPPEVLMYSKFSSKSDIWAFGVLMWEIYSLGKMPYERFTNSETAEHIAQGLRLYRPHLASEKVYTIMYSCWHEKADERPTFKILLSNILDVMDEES
T1 sequence (P07949 29-1114 G810R): as the sequence (P07949 29-1114) above, with G782R counted along it

Take `C[C@H]1CNC(=O)c2cnn3cc(-c4ccc5[nH]c(=O)[nH]c5c4)c(nc23)NCc2cc(F)cnc2O1` [Compound 38, (S, 1^3E, 1^4E)-4^5-fluoro-6-methyl-1^6-(2-oxo-2,3-dihydro-1H-benzo[d]imidazol-5-yl)-5-oxo-2,8-diaza-1(5,3)-pyrazolo[1,5-a]pyrimidin-4(3,2)-pyridinacyclononaphan-9-one]: the IC50 at RET G810R, at RET wt and on BTK was more than 1000 nM in each case.

On to `C[C@H]1CNC(=O)c2cnn3cc(C4=CCCC4)c(nc23)NCc2cc(F)cnc2O1` [Compound 41, (S, 1^3E, 1^4E)-1^6-(cyclopent-1-en-1-yl)-4^5-fluoro-6-methyl-5-oxa-2,8-diaza-1(5,3)-pyrazolo[1,5-a]pyrimidin-4(3,2)-pyridinacyclononaphan-9-one], for which the IC50 at RET G810R was more than 10000 nM; at RET wt, 13 nM; at BTK it was 2070 nM; at RET V804M, more than 10000 nM.

`COC(=O)NC1CC=C(c2cn3ncc4c3nc2NCc2cc(F)cnc2O[C@@H](C)CNC4=O)CC1` (stereo partly drawn) [Compound 43, methyl (4((S, 1^3E, 1^4E)-4^5-fluoro-6-methyl-9-oxo-5-oxa-2,8-diaza-1(5,3)-pyrazolo[1,5-a]pyrimidin-4(3,2)-pyridinacyclononaphan-1^6-yl)cyclohex-3-en-1-yl)carbamate]: the IC50 at RET G810R was more than 10000 nM; on RET wt it was 68 nM; on BTK, more than 10000 nM; on RET V804M, more than 10000 nM.

For the compound `C[C@H]1CNC(=O)c2cnn3c(N)c(-c4ccc(N)cc4)c(nc23)NCc2cc(F)cnc2O1` [Example 60, (S, 1^3E, 1^4E)-1^7-amino-1^6-(4-aminophenyl)-4^5-fluoro-6-methyl-5-oxa-2,8-diaza-1(5,3)-pyrazolino[1,5-a] pyrimidin-4(3,2)-pyridinacyclononaphan-9-one], the values for the IC50 on RET G810R, on RET wt and on BTK were 361 nM, 3.5 nM and 3.6 nM, respectively.

Turning to `CCCOC(=O)Nc1ccc(-c2c3nc4c(cnn4c2N)C(=O)NC[C@H](C)Oc2ncc(F)cc2CN3)cc1` [Example 67, propyl (4-((S, 1^3E, 1^4E)-1^7-amino-4^5-fluoro-6-methyl-9-oxo-5-oxa-2,8-diaza-1(5,3)-pyrazolino [1,5-a]pyrimidin-4(3,2)-pyridinacyclononaphan-1^6-yl)-phenyl)carbamate], the half-inhibitory concentration (IC50) on RET G810R worked out at 35.7 nM; on RET wt, 1.19 nM; at RET V804M, 3.58 nM.

On to `C[C@H]1CNC(=O)c2cnn3c(N)c(-c4ccc(NC(=O)OCC(F)(F)F)cc4)c(nc23)NCc2cc(F)cnc2O1` [Example 68, trifluoroethyl (4-((S, 1^3E, 1^4E)-1^7-amino-4^5-fluoro-6-methyl-9-oxo-5-oxa-2,8-diaza-1(5,3)-pyrazolino [1,5-a]pyrimidin-4(3,2)-pyridinacyclononaphan-1^6-yl)-phenyl)carbamate], for which the IC50 at RET G810R was found to be 155 nM; at RET wt it was 6.2 nM; on RET V804M, 15 nM.

`CCOC(=O)Nc1ccc(-c2c3nc4c(cnn4c2N)C(=O)NC[C@H](C)Oc2ncc(F)cc2CN3)cc1F` [Example 69, ethyl (4-((S, 1^3E, 1^4E)-1^7-amino-4^5-fluoro-6-methyl-9-oxo-5-oxa-2,8-diaza-1(5,3)-pyrazolo[1,5-a]pyrimidin-4(3,2)-pyridinacyclononaphan-1^6-yl)-2-fluorophenyl)carbamate]: the IC50 on RET G810R came to 16 nM; at RET wt, 0.87 nM; on RET V804M, 2.8 nM.

`CCOC(=O)Nc1c(F)cc(-c2c3nc4c(cnn4c2N)C(=O)NC[C@H](C)Oc2ncc(F)cc2CN3)cc1F` [Example 70, (S, 1^3E, 1^4E)-1^7-amino-4^5-fluoro-6-methyl-1^6-(6^2′^6-difluoro-6^1-(ethoxycarbonyl)amino-4-yl)phenyl-5-oxa-2,8-diaza-1(5,3)-pyrazolo[1,5-a]pyrimidinyl-4(3,2)-pyridinacyclononaphan-9-one]: the IC50 at RET G810R was more than 1000 nM; at RET wt, 15 nM; at RET V804M, 551 nM.

Regarding `CCOC(=O)Nc1ccc(-c2c3nc4c(cnn4c2N)C(=O)NC[C@H](C)Oc2ncc(F)cc2CN3)c(F)c1` [Example 71, ethyl (4-((S, 1^3E, 1^4E)-1^7-amino-4^5-fluoro-6-methyl-9-oxo-5-oxo-2,8-diaza-1(5,3)-pyrazolo[1,5-a]pyrimidin-4(3,2)-pyridinacyclononaphan-1^6-yl)-3-fluorophenyl)carbamate], the results for the half-inhibitory concentration (IC50) at RET G810R, at RET wt and at RET V804M were 23 nM, 1.2 nM and 1.6 nM, respectively.

As to `CCOC(=O)Nc1ccc(-c2c3nc4c(cnn4c2N)C(=O)NCCOc2ncc(F)cc2CN3)cc1` [Example 72, ethyl (4-((1^3E, 1^4E)-1^7-amino-4^5-fluoro-9-oxo-5-oxo-2,8-diaza-1(5,3)-pyrazolo[1,5-a]pyrimidin-4(3,2)-pyridinacyclononaphan-1^6-yl)phenyl)carbamate], the IC50 on RET G810R was 14 nM; on RET wt, 0.56 nM; on RET V804M, 1.4 nM.

As to `Nc1c(-c2ccccc2)c2nc3c(cnn13)C(=O)NCCCc1ncc(F)cc1CN2` [Example 73, (1^3E, 1^4E)-1^7-(amino)-4^5-fluoro-1^6-phenyl-2,8-aza-1(5,3)-pyrazolo[1,5-a]pyrimidinyl-4(3,2)-pyridinacyclononaphan-9-one], the IC50 worked out at 238 nM on RET G810R, 4.4 nM on RET wt and 137 nM on RET V804M.

Turning to `CCNC(=O)Nc1ccc(-c2c3nc4c(cnn4c2N)C(=O)NC[C@H](C)Oc2ncc(F)cc2CN3)cc1` [Example 80, 1-(4-((S, 1^3E, 1^4E)-1^7-amino-4^5-fluoro-6-methyl-9-oxo-5-oxa-2,8-diaza-1(5,3)-pyrazolo[1,5-a]pyrimidin-4(3,2)-pyridinacyclononaphan-1^6-yl)-phenyl)-3-ethylurea], the IC50 at RET G810R is 15 nM; on RET wt, 0.6 nM; on RET V804M, 0.99 nM.

Regarding `CCN(C)C(=O)Nc1ccc(-c2c3nc4c(cnn4c2N)C(=O)NC[C@H](C)Oc2ncc(F)cc2CN3)cc1` [Example 81, 3-(4-((S, 1^3E,VE)-1^7-amino-4^5-fluoro-6-methyl-9-oxo-5-oxa-2,8-diaza-1(5,3)-pyrazolo[1,5-a]pyrimidin-4(3,2)-pyridinacyclononaphan-1^6-yl)-phenyl)-1-ethyl-1-methylure a], the IC50 was more than 1000 nM on RET G810R, 89 nM on RET wt and 384 nM at RET V804M.

Consider `C[C@H]1CNC(=O)c2cnn3c(N)c(-c4cnn(C)c4)c(nc23)NCc2cc(F)cnc2O1` [Example 82, (S, 1^3E, 1^4E)-1^7-amino-4^5-fluoro-6-methyl-1^6-(1-methyl-1H-pyrazol-4-yl)-5-oxa-2,8-diaza-1(5,3)-pyrazolo[1,5-a]pyrimidin-4(3,2)-pyridinacyclononaphan-9-one], for which the figures for the IC50 at RET G810R, at RET wt and at RET V804M were 138 nM, 1.1 nM and 9.5 nM, respectively.

Consider `CCNC(=O)Cc1ccc(-c2c3nc4c(cnn4c2N)C(=O)NC[C@H](C)Oc2ncc(F)cc2CN3)cc1` [Example 83, 2-(4-((S, 1^3E, 1^4E)-1^7-4^5-fluoro-6-methyl-9-oxo-5-oxa-2,8-diaza-1(5,3)-pyrazolo[1,5-a]pyrimidin-4(3,2)-pyridinacyclononaphan-1^6-yl)phenyl)-N-ethylacetamide], for which the half-inhibitory concentration (IC50) at RET G810R was more than 1000 nM; at RET wt, 49 nM; on RET V804M, 281 nM.

The record behind these values is patent US20230219978A1, “COMPOUND HAVING MACROCYCLIC STRUCTURE AND USE THEREOF” (SCINNOHUB PHARMACEUTICAL CO., LTD, priority 2020, published 2023).
